Source: ChEMBL document CHEMBL1146957, “An efficient, asymmetric solid-phase synthesis of benzothiadiazine-substituted tetramic acids: potent inhibitors of the hepatitis C virus RNA-dependent RNA polymerase” (Bioorg Med Chem Lett, 2006)

How the values were obtained:
[1] = target: RNA-directed RNA polymerase (Hepacivirus hominis, UniProt O39930); assay: Inhibition of HCV NS5B RNA dependent RNA polymerase
Hepatitis C virus = assay: Inhibition of HCV replication; assay type: functional, organism-based, Hepacivirus hominis

RNA-directed RNA polymerase, sequence (O39930 whole entry): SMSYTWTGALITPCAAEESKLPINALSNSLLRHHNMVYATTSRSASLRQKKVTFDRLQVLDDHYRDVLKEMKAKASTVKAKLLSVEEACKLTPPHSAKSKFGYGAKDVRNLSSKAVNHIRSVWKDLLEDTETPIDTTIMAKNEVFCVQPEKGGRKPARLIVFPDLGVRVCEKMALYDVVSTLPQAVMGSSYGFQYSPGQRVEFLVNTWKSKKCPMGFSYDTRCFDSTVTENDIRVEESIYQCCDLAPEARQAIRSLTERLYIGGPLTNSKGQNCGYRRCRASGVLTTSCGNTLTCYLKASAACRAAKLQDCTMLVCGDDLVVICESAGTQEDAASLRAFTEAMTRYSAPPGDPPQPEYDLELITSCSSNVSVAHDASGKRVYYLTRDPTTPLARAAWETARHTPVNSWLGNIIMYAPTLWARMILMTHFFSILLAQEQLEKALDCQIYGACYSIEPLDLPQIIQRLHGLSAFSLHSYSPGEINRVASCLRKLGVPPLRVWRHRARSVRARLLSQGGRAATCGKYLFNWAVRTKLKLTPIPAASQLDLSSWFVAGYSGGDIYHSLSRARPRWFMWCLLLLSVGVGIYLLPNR

IC50 [1]	IC50 (Hepatitis C virus)	SMILES
200 nM	269000 nM	CC(C)CCn1c(=O)c(C2=NS(=O)(=O)c3ccccc3N2)c(O)c2ccccc21
486 nM		CC(C)(C)CCN1C(=O)C(C2=NS(=O)(=O)c3ccccc3N2)=C(O)[C@@H]1C1CCCCC1
1.7 nM		CC(C)(C)CCN1C(=O)C(C2=NS(=O)(=O)c3ccccc3N2)=C(O)[C@@H]1C(C)(C)C
22 nM	13000 nM	CC(C)(C)[C@H]1C(O)=C(C2=NS(=O)(=O)c3ccccc3N2)C(=O)N1Cc1ccccc1
2470 nM		O=C1C(C2=NS(=O)(=O)c3ccccc3N2)=C(O)[C@H](Cc2cccnc2)N1Cc1ccc(F)cc1
18 nM	8000 nM	CC(C)CCN1C(=O)C(C2=NS(=O)(=O)c3ccccc3N2)=C(O)[C@@H]1C(C)(C)C
88 nM	37000 nM	CCC(C)[C@H]1C(O)=C(C2=NS(=O)(=O)c3ccccc3N2)C(=O)N1Cc1ccccc1 (some centres undefined)
147 nM	159000 nM	CC(C)CCN1C(=O)C(C2=NS(=O)(=O)c3ccccc3N2)=C(O)[C@@H]1C(C)C
3570 nM	> 60000 nM	CC(C)CCN1C(=O)C(C2=NS(=O)(=O)c3ccccc3N2)=C(O)[C@@H]1Cc1ccccc1
59 nM		CC(C)(C)[C@H]1C(O)=C(C2=NS(=O)(=O)c3ccccc3N2)C(=O)N1Cc1ccc(F)cc1
530 nM		CC(C)(C)[C@H]1C(O)=C(C2=NS(=O)(=O)c3ccccc3N2)C(=O)N1CCC1CC1

SMILES	IC50 [1]	IC50 (Hepatitis C virus)
CC(C)(C)CCN1C(=O)C(C2=NS(=O)(=O)c3ccccc3N2)=C(O)[C@@H]1c1ccc(F)cc1	> 748 nM	
CC(C)(C)[C@H]1C(O)=C(C2=NS(=O)(=O)c3ccccc3N2)C(=O)N1Cc1ccccn1	> 100000 nM	
